Entries after “also recorded” stand apart in the source; their conditions may differ. Where a SMILES comes first, the peptide text is derived from it. Where no end group is shown, it is not given here. [ ]: non-standard residue; d: D form.
Legend:
[1] = tested on: NS20Y neuroblastoma cells; experiment: NS20Y neuroblastoma neurite outgrowth assay; assay type: cell-based; conditions: for neurite outgrowth (neuritogenic activity): 0.5-8 ng/ml peptide, 24 hours, DMEM 0.5% FCS
Procedure: NS20Y neuroblastoma cells were grown in DMEM containing 10% fetal calf serum (FCS). Cells were removed with trypsin and plated in 30 mm petri dishes onto glass coverslips. After 20-24 hours, the medium was replaced with 2 ml DMEM containing 0.5% FCS plus 0, 0.5, 1, 2, 4 or 8 ng/ml effector peptides. Cells were cultured for an additional 24 hours, washed with PBS and fixed with Bouin's solution (saturated aqueous picric acid/formalin/acetic acid 15:5:1) for 30 minutes. Fixative was removed with PBS and neurite outgrowth was scored under a phase contrast microscope. […] At least 200 cells were scored in different portions of each dish to determine the percentage of neurite bearing cells and assays were performed in duplicate.
Increased neurite outgrowth was evident using as little as 0.5 ng/ml peptide.

[2] = tested on: NS20Y neuroblastoma cells; experiment: Cell death assay, trypan blue staining of NS20Y cells in low serum; assay type: cell-based; conditions: for reduction of the number of trypan blue-positive (dead) cells: NS20Y cells, 8 ng/ml peptide, 2 days in 0.5% fetal bovine serum; for prevention of cell death: neuroblastoma cells in culture
Procedure: NS20Y cells were plated as described in Example 1 and grown on glass coverslips in 0.5% fetal bovine serum for 2 days in the presence or absence of 8 ng/ml effector peptides. Media was removed and 0.2% trypan blue in PBS was added to each well. Blue-staining dead cells were scored as a percentage of the total on an inverted microscope, counting 400 cells in four areas of each well. The average error of duplicates was ±5%.

[3] = tested on: newborn mouse cerebellar explants; experiment: Ex vivo myelination assay in newborn mouse cerebellar explants; assay type: cell-based; conditions: added on second day, observed for 22 days in culture; saposin C positive control 1-10 μg/ml
Procedure: Newborn mouse cerebellar explants are prepared according to Satomi (Zool. Sci. 9:127-137, 1992). Neurite outgrowth and myelination are observed for 22 days in culture, during the period when the newborn mouse cerebellum normally undergoes neuronal differentiation and myelination begins. D2, D3, D4, D5 or another peptide including SEQ ID NO: 12 is added on the second day after preparation of the explants (three control and three treated explants) and outgrowth of neurites and myelination are assessed under a bright field microscope with a video camera. Saposin C is used as a positive control at a concentration of between about 1 and 10 μg/ml.

[4] = in vivo; cited from earlier work
neurite outgrowth = conditions: system not specified; cited from earlier work
neuroblastoma cells [5] = conditions: cited from earlier work
[6] = tested on: mouse cerebellar explants; conditions: cited from earlier work
[7] = tested on: choline acetyltransferase activity; conditions: neuroblastoma cells in vitro; cited from earlier work
neuroblastoma cells [8] = conditions: neuroblastoma cells in vitro; cited from earlier work
[9] = Integrity (intactness) of peptide D4 in organs by HPLC 60 minutes after injection; assay type: in vivo, rat
Procedure: In another study, an aliquot of brain, liver, lung and kidney was taken 60 minutes after injection for HPLC analyses (Vydac C4 column) to determine the integrity (intactness) of the peptide in brain, blood and kidney. Peptide D4 was 95% intact in these organs, indicating the in vivo stability of this peptide after 60 minutes. The peak at 16 min. is intact D4; a breakdown product peak is evident at 4 min.

[10] = Localization of 125I-labelled peptide D4 in organs after intramuscular injection
Procedure: After 20 min., the rat was anesthetized, perfused with PBS and the organs removed and counted in a gamma counter.

TX14(A): TXLIDNNATEEILY, X=D-alanine; SEQ ID NO: 4; modified 15-mer of human saposin C (T[dA]LIDNNATEEILY) [TX…, X=D-alanine; modified 15-mer of human saposin C, reference compound]
neurite outgrowth (neuritogenic activity) [1]: exhibited neuritogenic activity; also recorded: induced neurite outgrowth | reduction of the number of trypan blue-positive (dead) cells [2]: about 50% | prevention of cell death [2]: prevented cell death in neuroblastoma cells in culture to the same extent

peptide D2: YLIEETANNDILAT, all D-amino acids; SEQ ID NO: 5; retro-inverted TX14(A) ([dY][dL][dI][dE][dE][dT][dA][dN][dN][dD][dI][dL][dA][dT]; also: retro-inverted)
neurite outgrowth activity compared with TX14(A) [1]: slightly more active that TX14(A); also recorded: slightly more effective than TX14(A) | neurite outgrowth (neuritogenic activity) [1]: exhibited neuritogenic activity; also recorded: induced neurite outgrowth | reduction of the number of trypan blue-positive (dead) cells [2]: about 50% | prevention of cell death [2]: prevented cell death in neuroblastoma cells in culture to the same extent | stimulation of myelination [3]: to a similar extent as with saposin C

D3: retro-inverso peptide YLEETANNDLLAT; SEQ ID NO: 11 ([dY][dL][dE][dE][dT][dA][dN][dN][dD][dL][dL][dA][dT]; also: retro-inverso)
neurite outgrowth (neuritogenic activity) [1]: promoted neurite outgrowth in vitro | stimulation of myelination [3]: to a similar extent as with saposin C

18-mer: YKEVTKLIDNNKTEKEIL; SEQ ID NO: 2; within the active 22-mer of saposin C, V replaced by Y (Homo Sapien)
crossing of the blood-brain barrier [4]: crosses the blood brain barrier; also recorded: able to cross the blood-brain barrier | neurite outgrowth (neurite outgrowth): promotes neurite outgrowth

22-mer: CEFLVKEVTKLIDNNKTEKEIL; SEQ ID NO: 1; amino acids 8-29 of human saposin C (Homo Sapien)
neurite outgrowth (neuroblastoma cells [5]): stimulates neurite outgrowth | neurite outgrowth [6]: stimulates neurite outgrowth | choline acetyltransferase activity [7]: stimulates choline acetyltransferase activity | prevention of cell death (neuroblastoma cells [8]): prevented cell death

rat 14-mer: rat 14-mer derived from the saposin C active sequence, SELIINNATEELLY; SEQ ID NO: 6 (Homo Sapien) [reference compound]
neurite outgrowth (neuritogenic activity) [1]: induced neurite outgrowth

CC(C)C[C@@H](NC(=O)[C@@H](CC(C)C)NC(=O)[C@@H](CC(=O)O)NC(=O)[C@@H](CC(N)=O)NC(=O)[C@@H](CC(N)=O)NC(=O)[C@@H](C)NC(=O)[C@H](NC(=O)[C@@H](CCC(=O)O)NC(=O)[C@@H](CCC(=O)O)NC(=O)[C@@H](CC(C)C)NC(=O)[C@@H](CC(C)C)NC(=O)[C@H](N)Cc1ccc(O)cc1)[C@H](C)O)C(=O)O [peptide D4] (H-[dY][dL][dL][dE][dE][dT][dA][dN][dN][dD][dL][dL]-OH; N-terminus and C-terminus assumed)
in vivo stability ([9]; 60 minutes after injection): stable in vivo | crossing of the blood brain barrier ([9]; after intramuscular injection, rat): crosses the blood brain barrier in amounts sufficient to exert a therapeutic effect | presence of peptide in the brain ([10]; after intramuscular injection into a rat): significant amounts | concentration in brain relative to required neurotrophic dose for neural cells determined in vitro ([10]; brain, 20 min after 200 μg/kg intramuscular, rat): approximately 20 times

B1: saposin C: small heat-stable glycoprotein generated by proteolytic processing of prosaposin (protein, UniProt P07602 311-390, looked up)
Saposin-C: SDVYCEVCEFLVKEVTKLIDNNKTEKEILDAFDKMCSKLPKSLSEECQEVVDTYGSSILSILLEEVSPELVCSMLHLCSG
modifications: Saposin-C
myelination (neurite outgrowth): promote increased myelination | neurite outgrowth (neurite outgrowth): stimulate neurite outgrowth

Source: patent publication US6458357B1, “Retro-inverso neurotrophic and analgesic peptides” (Myelos Corporation, priority 1997, dated 2002)
